Assay results published in PMC7565988, “Insight into the Anticancer Activity of Copper(II) 5-Methylenetrimethylammonium-Thiosemicarbazonates and Their Interaction with Organic Cation Transporters” (Biomolecules, 2020).
Read-outs that look alike come from different tables or passages of the source.

Key:
[1] = MTT cytotoxicity (24 h) / antiproliferation (72 h) assay; format: cell-based; settings: human, MRC-5 embryonal lung fibroblast cells (non-cancerous); for IC50 at 24 h: 24 h exposure; for IC50 at 72 h: 72 h exposure
Experimental: (§1) MRC-5 human embryonal lung fibroblast cell line (ATCC CCL-171) was purchased from LGC Promochem, Teddington, UK. The cell line was cultured in Eagle’s Minimal Essential Medium (EMEM, containing 4.5 g/L glucose) supplemented with a non-essential amino acid mixture, a selection of vitamins and 10% heat-inactivated foetal bovine serum. The cell line was incubated at 37 °C, in a 5% CO2, 95% air atmosphere.
(§2) In the study non-cancerous human embryonic lung fibroblast MRC-5, human colonic adenocarcinoma cell line (doxorubicin-sensitive Colo 205, multidrug resistant Colo 320) and neuroblastoma cell line SH-SY5Y were used to determine the effect of compounds on cell growth. The effects of increasing concentrations of compounds on cell growth were tested in 96-well flat-bottomed microtiter plates. The compounds were diluted in a volume of 100 μL of medium.
(§3) The adherent human embryonal lung fibroblast and SH-SY5Y neuroblastoma cells were cultured in 96-well flat-bottomed microtiter plates, using EMEM supplemented with 10% heat-inactivated foetal bovine serum. The density of the cells was adjusted to 2 × 10^4 cells in 100 μL per well, the cells were seeded for 24 h at 37 °C, 5% CO2, then the medium was removed from the plates containing the cells, and the dilutions of compounds previously made in a separate plate were added to the cells in 200 μL.
(§4) The culture plates were incubated at 37 °C for 24 h; at the end of the incubation period, 20 μL of MTT (thiazolyl blue tetrazolium bromide, Sigma) solution (from a stock solution of 5 mg/mL) were added to each well. After incubation at 37 °C for 4 h, 100 μL of sodium dodecyl sulfate (SDS) (Sigma) solution (10% in 0.01 M HCI) were added to each well and the plates were further incubated at 37 °C overnight. Cell growth was determined by measuring the optical density (OD) at 540/630 nm with Multiscan EX ELISA reader (Thermo Labsystems, Cheshire, WA, USA). […] Curves were fitted by GraphPad Prism software using the sigmoidal dose-response model (comparing variable and fixed slopes).
(§5) The method is similar to the one described in the assay for cytotoxic effect. […] The culture plates were incubated at 37 °C for 72 h and after the incubation time, the plates were stained with MTT according to the previous experimental protocol described for the cytotoxicity assay.

[2] = tested on: SH-SY5Y neuroblastoma cells; assay: as above; format: cell-based, human; settings: SH-SY5Y; for IC50: Homo sapiens, MTT; for enhancement of cytotoxicity by chelation to copper(II), factor: proligand vs its copper(II) complex
Experimental: as §1, with “SH-SY5Y (ATCC® CRL-2266™) neuroblastoma” for “MRC-5 human embryonal lung fibroblast”, “line” for “line (ATCC CCL-171)”
as §2, §3, §4, §5

[3] = tested on: Colo 320 multidrug resistant colonic adenocarcinoma cells (overexpressing ABCB1 (MDR1)-LRP); assay: as above; format: cell-based; settings: Homo sapiens, read-out: Colo320 IC50
Experimental: (§6) Human doxorubicin-sensitive Colo 205 (ATCC-CCL-222) and multidrug resistant Colo 320 (overexpressing ABCB1 (MDR1)-LRP (ATCC-CCL-220.1)) colonic adenocarcinoma cell lines were purchased from LGC Promochem, Teddington, UK. The cells were cultured in RPMI 1640 medium supplemented with 10% heat-inactivated fetal bovine serum, 2 mM L-glutamine, 1 mM Na-pyruvate and 100 mM Hepes. The cell lines were incubated at 37 °C, in a 5% CO2, 95% air atmosphere. The semi-adherent human colon cancer cells were detached with Trypsin-Versene (EDTA) solution for 5 min at 37 °C.
as §2
(§7) In case of the colonic adenocarcinoma cells, the two-fold serial dilutions of compounds were prepared in 100 μL of RPMI 1640, horizontally. The semi-adherent colonic adenocarcinoma cells were treated with Trypsin–Versene (EDTA) solution. The cells were adjusted to a density of 2 × 10^4 cells in 100 μL of RPMI 1640 medium, and were added to each well, with the exception of the medium control wells. The final volume of the wells containing compounds and cells was 200 μL.
as §4, §5

[4] = tested on: Colo 205 doxorubicin-sensitive colonic adenocarcinoma cells; assay: as above; format: cell-based, human; settings: Homo sapiens, read-out: Colo205 IC50
Experimental: as §6, §2, §7, §4, §5

[5] = Solution stability of copper(II) complexes, UV/Vis spectrophotometric titration; format: physicochemical; settings: for logβ [Cu(HL)]2+ / logβ [CuL]+: copper(II) complex of the proligand; for logβ [Cu(HL)]2+ / logβ [CuL]+ / logβ [CuLH−1]: I = 0.1 M (KCl), t = 25 °C; for logKderived [CuLH−1]+: logβ [CuL]+ − pKa (H2L+); for logβ [CuLH−1]: mixed hydroxido [CuL(OH)] species; for pCu (−log[Cu(II)]): pH = 7.4, cCu(II) = 10 μM, cL = 10 μM
Experimental: (§8) An Agilent Carry 8454 diode array spectrophotometer was used to record the UV/Vis spectra in the interval 200–800 nm. The path length was 1 cm. Proton dissociation constants (pKa) of the TSC ligands, the overall stability constants of the copper(II) monoligand complexes (logβ) and the individual spectra of the species in the various protonation states and stoichiometry were calculated by the computer program PSEQUAD [44]. Spectrophotometric titrations were performed on samples containing the proligands at 50 μM concentration by a KOH solution in the presence of 0.1 M KCl at 25.0 ± 0.1 °C in the pH range from 2 to 11.5, and the metal-to-ligand ratio was 1:0, 1:1 and 1:2. An Orion 710A pH-meter equipped with a Metrohm combined electrode (type 6.0234.100) and a Metrohm 665 Dosimat burette were used for the titrations. […] The average water ionisation constant (pKw) is 13.76 ± 0.05 in water. Argon was also passed over the solutions during the titrations. Measurements were also carried out in the range of ca. 1.0–2.0 by preparing individual samples in which KCl was partially or completely replaced by HCl and pH values (between 1 and 2) were calculated from the strong acid content.

[6] = Proton dissociation constants (pKa) of proligands by UV/Vis spectrophotometric titration; format: physicochemical; settings: for % HL at pH 7.4: fraction of proligand in neutral zwitterionic HL form at pH 7.4, computed with pKa; for pKa: proligand, phenolic OH, I = 0.1 M (KCl), t = 25 °C, water, read-out: pKa (H2L+)
Experimental: as §8

logβ [Cu(HL)]2+ [5] | logβ [CuL]+ [5] | logKderived [CuLH−1]+ [5] | logβ [CuLH−1] [5] | pCu (−log[Cu(II)]) [5] | % HL at pH 7.4 [6] | pKa [6] | SMILES | IC50 at 24 h [1] | IC50 at 72 h [1] | IC50 ([2]; 24 h exposure) | IC50 ([2]; 72 h exposure) | enhancement of cytotoxicity by chelation to copper(II), factor [2] | IC50 ([3]; 24 h exposure) | IC50 ([3]; 72 h exposure) | IC50 ([4]; COLO 205, 24 h exposure) | IC50 ([4]; COLO 205, 72 h exposure)
11.73 ± 0.02 | 7.76 ± 0.02 | 0.22 | −1.48 ± 0.08 | 11.79 | 42% | 7.54 ± 0.01 | CNC(=S)N/N=C/c1cc(C[N+](C)(C)C)ccc1O [[H2L^Me]Cl] | > 100 µM | > 100 µM | > 100 µM | > 100 µM | ca. 7 | > 100 µM | 74.4 ± 3.85 µM | > 100 µM | > 100 µM
11.26 ± 0.02 | 8.55 ± 0.02 | 1.52 | −1.31 ± 0.05 | 12.80 | 70% | 7.03 ± 0.01 | C[N+](C)(C)Cc1ccc(O)c(/C=N/NC(=S)Nc2ccccc2)c1 [[H2L^Ph]Cl] | > 100 µM | > 100 µM | > 100 µM | 31.5 ± 2.66 µM |  | > 100 µM | 95.8 ± 1.58 µM | > 100 µM | > 100 µM
11.66 ± 0.03 | 7.67 ± 0.03 | 0.36 | −1.65 ± 0.09 | 11.82 | 55% | 7.31 ± 0.01 | CCNC(=S)N/N=C/c1cc(C[N+](C)(C)C)ccc1O [[H2L^Et]Cl] | > 100 µM | > 100 µM | 88.1 ± 9.19 µM | 49.9 ± 3.97 µM |  | 63.8 ± 3.92 µM | 53.3 ± 2.44 µM | > 100 µM | > 100 µM

SMILES | logβ [Cu(HL)]2+ [5] | logβ [CuL]+ [5] | logKderived [CuLH−1]+ [5] | logβ [CuLH−1] [5] | pCu (−log[Cu(II)]) [5] | % HL at pH 7.4 [6] | pKa [6] | IC50 at 24 h [1] | IC50 at 72 h [1] | IC50 ([2]; 24 h exposure) | IC50 ([2]; 72 h exposure) | enhancement of cytotoxicity by chelation to copper(II), factor [2] | IC50 ([3]; 24 h exposure) | IC50 ([3]; 72 h exposure) | IC50 ([4]; COLO 205, 24 h exposure) | IC50 ([4]; COLO 205, 72 h exposure)
C[N+](C)(C)Cc1ccc(O)c(/C=N/NC(N)=S)c1 [[H2L^H]Cl] | 12.00 ± 0.01 | 8.14 ± 0.01 | 0.68 | −1.66 ± 0.02 | 12.21 | 47% | 7.46 ± 0.01 | > 100 µM | > 100 µM | > 100 µM | > 100 µM | ca. 2 | > 100 µM | 88.8 ± 5.32 µM | > 100 µM | > 100 µM
